One compound from patent publication US20130324413A1, “METHOD FOR PROMOTING PLANT GROWTH” (SUMITOMO CHEMICAL COMPANY, LIMITED, priority 2011, published 2013) can be followed below.

What all share (type): in vivo
In test [1] the test system is Corn (cultivar: PIONEER 31N27). The test is described as follows: Test Example 8: corn seedling spraying, low-temperature stress, fresh weight of above-ground part. As to conditions: for Average fresh weight of above-ground part: low-temperature stress 2±2° C. 5 days, non-treated 0.79 g. As to the method: Corn seeds (cultivar: PIONEER 31N27) were sown in the culture soil (AISAI) in plastic pots (55 mm in diameter×58 mm in height) and grown for a week under the following conditions to obtain corn seedlings: temperature, 20 to 25° C.; humidity, 50 to 75%; illuminance, about 5,000 lux; day length, 16 hours.
A flowable formulation of the compound (1b) was obtained by adding 120 mg of a mixture of white carbon and a polyoxyethylene alkyl ether sulfate ammonium salt (weight ratio of 1:1) and 300 μl of water to 0.5 mg of compound (1b), followed by fine grinding by a wet grinding method. This flowable formulation was diluted with 50 ml of water, to which RINO (manufactured by NIHON NOHYAKU) was added as a sticker to 5,000-fold dilution, whereby a spray solution was obtained. A sufficient amount of the spray solution was applied to the corn seedlings by using an automatic spraying machine. As a control, a flowable formulation without compound (1b) was prepared and then sprayed to the non-treated group.
Subsequently, the corn seedlings treated with the spray solution were placed in a phytotron under the following conditions in order to expose the plants to low-temperature stress for 5 days. • Conditions: “temperature, 2±2° C.; lighting hour, 16 hours; • illuminance, about 5,000 lux; humidity, 35 to 80%”
The plants were then grown for another 4 days under the following conditions: temperature, 25 to 28° C.; humidity, 50 to 75%, illuminance, about 5,000 lux; day length, 16 hours. Then the fresh weight of the above-ground part of the plants was measured. The experiment was performed in four replications for each treatment condition and the average weight per individual was calculated.

The subject of test [2] is Corn (cultivar: PIONEER 120 31P41). The experiment in a line: Test Example 13: corn soil irrigation, low-temperature stress, growth and chlorophyll. Conditions: soil irrigation 20 ml, low-temperature stress 2 to 4° C. 5 days. On the procedure: Corn seeds (cultivar: PIONEER 120 31P41) are sown in the culture soil (AISAI) in plastic pots (55 mm in diameter×58 mm in height) and grown for 7 days under the following conditions: temperature, 20 to 25° C.; humidity, 50 to 75%; illuminance, about 5,000 lux; day length, 16 hours. A DMSO solution of compound (1b) at a 1,000-fold concentration relative to each test concentration is diluted with distilled water to prepare a test soultion. Twenty (20) ml of the test solution obtained is applied around the base of each plant by soil irrigation, and then the plants are grown for two days under the following conditions: temperature, 27° C., humidity, 50 to 75%; illuminance, about 5,000 lux; day length 16 hours. This group is the present compound-treated group. The group to which 20 ml of a 0.1% aqueous DMSO solution is applied by soil irrigation in place of the DMSO solution of compound (1b) is used as the non-treated group. The plants subjected to the soil irrigation are grown for 5 days under the following conditions, to expose the plants to low-temperature stress: temperature, 2 to 4° C.; humidity, 40 to 70%, illuminance, about 5,000 lux; day length, 16 hours in a phytotron. After the exposure to low-temperature stress, the plants are grown for 4 days under the conditions of a temperature off20 to 25° C., a humidity of 50 to 75%, an illuminance of about 5,000 lux, and a day length of 16 hours. Then the plant weight and the length of true leaves are measured. Also, after the exposure to low-temperature stress, the plants are grown for 1 day under the conditions of a temperature of 20 to 25° C., a humidity of 50 to 75%, an illuminance of about 5,000 lux, and a day length of 16 hours. Then the chlorophyll fluorescence (Fv/Fm) is measured using a pulse modulation chlorophyll fluorometer (MAXI-IMAGING-PAM, WALZ). The chlorophyll content is measured using a chlorophyll gauge (SPAD-502; manufactured by KONICA MINOLTA).

Test [3] deals with corn seeds (cultivar: Kuromochi). The experiment in a line: Test Example 1: corn seed coating, fresh weight of above-ground part after 18 days. Conditions: for Average fresh weight of above-ground part: seed coating, grown 18 days at 27° C., non-treated 4.2 g. As to the method: A blank slurry solution containing 5% (V/V) color coat red (Becker Underwood, Inc.), 5% (V/V) CF-Clear (Becker Underwood, Inc.) and 0.4% Maxim XL (Syngenta) was prepared. […] In a 50-ml centrifuge tube (manufactured by BD Japan), 0.48 ml of the slurry solution was placed for each 20 g of corn seeds (cultivar: Kuromochi) and stirred until the solution was dried, thereby coating the seeds. As a control, seeds were coated with the blank slurry solution and used as seeds for a non-treated group. Two treated corn seeds were sown in the culture soil (AISAI) in each plastic pot (55 mm in diameter×58 mm in height) and grown for 18 days under the following conditions: temperature, 27° C.; illuminance, about 5,000 lux; day length, 16 hours. The fresh weight of the above-ground part of the plants was measured. The experiment was performed in four replications for each treatment condition and the average weight per individual was calculated.

Test [4] has the same test system. The test is described as follows: Test Example 6: corn seed coating, low-temperature stress, fresh weight of above-ground part. Conditions: for Average fresh weight of above-ground part: low-temperature stress 3±2° C. 7 days, non-treated 1.18 g. As to the method:
A blank slurry solution containing 5% (V/V) color coat red (Becker Underwood, Inc.), 5% (V/V) CF-Clear (Becker Underwood, Inc.) and 0.4% Maxim XL (Syngenta) was prepared. […] In a 50-ml centrifuge tube (manufactured by BD Japan), 0.48 ml of the slurry solution was placed for each 20 g of corn seeds (cultivar: Kuromochi) and stirred until the solution was dried, thereby coating the seeds. As a control, seeds were coated with the blank slurry solution and used for a non-treated group. Two treated corn seeds were sown in the culture soil (AISAI) in each plastic pot (55 mm in diameter×58 mm in height) and grown for 4 days under the following conditions: temperature, 27° C.; illuminance, 5,000 lux; day length, 16 hours. These were subjected to the test. The pots at day 4 after the sowing were placed in a phytotron under the following conditions in order to expose the plants to low-temperature stress for 7 days. Conditions: “temperature, 3±2° C.; day length, 16 hours; illuminance, about 5,000 lux; humidity, 35 to 80%” The plants were grown for another 7 days under the following conditions: temperature, 27° C.; humidity, 50 to 75%, illuminance, about 5,000 lux; day length, 16 hours. Then the fresh weight of the above-ground part of the plants was measured. The experiment was performed in four replications for each treatment condition and the average weight per individual was calculated.

As for `CNC(=O)C(OC)c1ccccc1COc1cc(C)ccc1C` (racemic) [Compound (1b), N-methyl-2-[2-(2,5-dimethylphenoxy)methyl]phenyl-2-methoxyacetamide], the “fresh weight of the above-ground part as compared with the non-treated group” value in test [1] (plants exposed to low-temperature stress, concentration range of 10 ppm to 100 ppm) is on record as “increased”. Also, the “Average fresh weight of above-ground part” value in test [1] (spray 10 ppm) came to 0.89 g; in test [1] (spray 30 ppm), 0.94 g; in test [1] (spray 100 ppm) it was 0.90 g; in test [3] (amount of compound 10 g/ of seeds), 4.4 g; in test [3] (amount of compound 12.5 g/ of seeds) it was 4.4 g; in test [3] (amount of compound 25 g/ of seeds), 5.0 g. Also, the “Average fresh weight of above-ground part” value in test [3] (amount of compound 50 g/ of seeds) is 4.5 g; in test [4] (seed coating 10 g), 1.33 g; in test [4] (seed coating 25 g), 1.30 g; in test [4] (seed coating 50 g) it was 1.29 g; in test [4] (seed coating), 1.34 g. Besides, the “chlorophyll fluorescence (Fv/Fm) as compared with the non-treated group” value in test [2] (then 1 day growth) is reported as “increases”. Moreover, the “length of true leaves as compared with the non-treated group” value in test [2] (then 4 days growth) was “increased”. Further, the “plant weight as compared with the non-treated group” value in test [2] (then 4 days growth) is “increased”. In test [2] (chlorophyll gauge SPAD-502), the “chlorophyll content as compared with the non-treated group” value was “increases”. The “Relative value (fresh weight of above-ground part)” value in test [3] (12.5 g/ of seeds, non-treated = 100) is 105%. For the same compound, the “fresh weight of the above-ground part as compared with the control group” value is recorded as “increased” in test [3] (amount ranging from 10 g to 50 g per 100 kg of seeds) and “an increase” in test [4] (plants exposed to low-temperature stress, 10 g to 50 g per 100 kg of seeds).
